Tests used:
[1] = degree of order S in liquid crystal mixture; format: physicochemical
Method: (§1) The degree of order S measured at room temperature, the solubility L, likewise determined at room temperature, and the Merck liquid crystal mixtures used are summarized in Table 1 for the Examples 1, 2 and 4-12.
The degree of order S was determined in commercial measuring cells with a homogeneous edge orientation, using the known equation [formula] (polyimide). The dichroic ratio CR was determined by measuring the extinctions E.parallel. (measurement with light polarized parallel to the preferred direction of the nematic phase) and E.perp. (measurement with light polarized at right angles to the preferred direction of the nematic phase) and using the relationship [formula] the dye concentration being chosen so that E.parallel. was from 1 to 2. The measurements were carried out on a Beckmann Acta CIII spectrophotometer.

[2] = solubility L in liquid crystal mixture; format: physicochemical; conditions: 1 week stirring
Method: as §1
The solubility was determined as follows:
50 mg of the particular dye were stirred in 1 ml of liquid-crystalline mixture for 1 week at room temperature, the saturated solution was separated from the residue by centrifuging, and the solubility was determined by comparison of the extinctions.

[3] = liquid crystal mixture ZLI 1840
[4] = liquid crystal mixture ZLI 1957/5
[5] = liquid crystal mixture ZLI 2452

Row | Degree of order S (at room temp.) [1, 3] | Degree of order S (at room temp.) [1, 4] | Solubility L (at room temp.) [2, 3] | Solubility L (at room temp.) [2, 4] | Degree of order S (at room temp.) [1, 5] | Solubility L (at room temp.) [2, 5] | SMILES
1 | 0.76 | 0.76 | 1.6% | 1.3% |  |  | CCCCc1nnc(-c2ccc(N=Nc3cc(C)c(N=Nc4ccc(OCc5ccc(C6CCC(CC)CC6)cc5)cc4C)cc3C)cc2)o1 (stereo not drawn) [Example 1]
2 |  | 0.74 |  | 1.1% |  |  | CCCCSc1nnc(-c2ccc(N=Nc3cc(C)c(N=Nc4ccc(N(C)CCCC)cc4)cc3C)cc2)s1 [Example 2]
3 | 0.78 |  | < 0.2% |  |  |  | Cc1cc(N=Nc2ccc(N(C)C)cc2)c(C)cc1N=Nc1ccc(-c2nnc(SCc3ccccc3)s2)cc1 [Example 4]
4 | 0.73 | 0.73 | 1.4% | 1.3% |  |  | CCCCc1nnc(-c2ccc(N=Nc3cc(C)c(N=Nc4ccc(N(C)CCCC)cc4)cc3C)cc2)o1 [Example 5]
5 |  | 0.68 |  | > 5% |  |  | CCCCC(CC)c1nnc(-c2ccc(N=Nc3cc(C)c(N=Nc4ccc(N(C)CCCC)cc4)cc3C)cc2)o1 (stereo not drawn) [Example 6]
6 | 0.74 |  | 1.4% |  |  |  | CCOC(=O)c1sc(-c2ccc(N=Nc3ccc(N=Nc4ccc(N(C)C)cc4)c4ccccc34)cc2)nc1C [Example 7]
7 | 0.76 | 0.78 | 1.3% | 0.5% |  |  | CCCCSc1nnc(-c2ccc(N=Nc3ccc(N=Nc4ccc(N(C)C)cc4)c4ccccc34)cc2)s1 [Example 8]
8 | 0.79 | 0.77 | 0.6% | 0.3% |  |  | CCCCSc1nnc(-c2ccc(N=Nc3ccc(N=Nc4ccc(N(C)CCCC)cc4)c4ccccc34)cc2)s1 [Example 9]
9 |  | 0.74 |  | 1.2% |  |  | CCCCc1nnc(-c2ccc(N=Nc3ccc(N=Nc4ccc(N(C)CCCC)cc4)c4ccccc34)cc2)o1 [Example 10]
10 |  | 0.74 |  | > 5% |  |  | CCCCC(CC)c1nnc(-c2ccc(N=Nc3ccc(N=Nc4ccc(N(C)CCCC)cc4)c4ccccc34)cc2)o1 (stereo not drawn) [Example 11]
11 |  | 0.71 |  | 0.8% |  |  | CCCCC(CC)c1nnc(-c2ccc(N=Nc3ccc(N=Nc4ccc(NCC)c5ccccc45)c4ccccc34)cc2)o1 (stereo not drawn) [Example 12]
12 |  | 0.77 |  | 0.7% |  |  | CCCCCCCCSc1nnc(-c2ccc(N=Nc3ccc(N=Nc4ccc(N(C)CCCC)cc4)c4ccccc34)cc2)s1 [Example 14]
13 |  |  |  |  | 0.8 | > 5% | CCCCC(CC)CSc1nnc(-c2ccc(N=Nc3ccc(N=Nc4ccc(N(C)CCCC)cc4)c4ccccc34)cc2)s1 (stereo not drawn) [Example 15]
14 |  |  |  |  | 0.81 | > 5% | CCCCCCCC(C)Sc1nnc(-c2ccc(N=Nc3ccc(N=Nc4ccc(N(C)CCCC)cc4)c4ccccc34)cc2)s1 (stereo not drawn) [Example 16]
15 |  |  |  |  | 0.82 | 3.1% | CCCCC1CCC(c2ccc(COc3ccc(N=Nc4ccc(N=Nc5ccc(-c6nnc(SCC(CC)CCCC)s6)cc5)c5ccccc45)c(C)c3)cc2)CC1 (stereo not drawn) [Example 18]
16 |  | 0.77 |  | > 5% | 0.84 | > 5% | CCCCCCCC(C)Sc1nnc(-c2ccc(N=Nc3ccc(N=Nc4ccc(OCc5ccc(C6CCC(CCCC)CC6)cc5)cc4C)c4ccccc34)cc2)s1 (stereo not drawn) [Example 19]
